According to patent publication US11078202B2, “β-lactamase inhibitor and use thereof” (priority 2018, dated 2021):
Where a name gives a salt, the structure may show the parent alone.

Experiments:
Assay type in all cases: cell-based
[1] = system: Klebsiella pneumoniae XNWB 0001; experiment: MIC assay of test compounds combined with ceftazidime (8 μg/mL); conditions: ceftazidime 8 μg/mL fixed
Procedure, shortened: (§1)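 Colonies from 20-24 h TSA plates (35±2 °C) → saline, OD600 0.1-0.15 → 300-fold dilution in 1.1×CAMHB → added to compound plus fixed antibiotic wells, growth and sterility controls included → 16-20 h at 35±2 °C → MIC by CLSI criteria.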

[2] = system: Klebsiella pneumoniae XNWB 0003; experiment: as above; conditions: ceftazidime 8 μg/mL fixed
Procedure, shortened: as §1

[3] = system: Pseudomonas aeruginosa XNWB 0008; experiment: as above; conditions: ceftazidime 8 μg/mL fixed
Procedure, shortened: as §1

[4] = system: Klebsiella pneumoniae XNWB 0004; experiment: as above; conditions: ceftazidime 8 μg/mL fixed
Procedure, shortened: as §1

[5] = system: Klebsiella pneumoniae XNWB 0005; experiment: as above; conditions: ceftazidime 8 μg/mL fixed
Procedure, shortened: as §1

[6] = system: Klebsiella pneumoniae XNWB 0002; experiment: as above; conditions: ceftazidime 8 μg/mL fixed
Procedure, shortened: as §1

[7] = system: Acinetobacter baumannii XNWB 0007; experiment: as above; conditions: ceftazidime 8 μg/mL fixed
Procedure, shortened: as §1

[8] = system: Klebsiella pneumoniae XNWB 0006; experiment: as above; conditions: ceftazidime 8 μg/mL fixed
Procedure, shortened: as §1

[9] = system: Escherichia coli XNWB 0009; experiment: MIC assay of test compounds combined with ampicillin (8 μg/mL); conditions: ampicillin 8 μg/mL fixed
Description: (§2) The bacterial strains used for the minimum inhibitory concentration (MIC) test were frozen in a −80° C. ULT freezer and thawed 2 days before use. A small amount of frozen bacterial strains were scraped using a sterile inoculating loop, streaked onto a TSA solid culture dish for inoculation, and then cultured for 20-24 h at 35±2° C. in a normal atmospheric environment.
(§3) 5-10 colonies with similar morphology were picked from the culture dish using a sterile inoculating loop and then re-streaked onto a suitable solid culture dish. Then the dish was placed into a normal incubator for culture for 20-24 h at 35±2° C.
(§4) 5-10 single bacterial colonies were picked from the solid culture dish, resuspended in 500 μL of 0.9% NaCl, and adjusted to an OD600 of 0.1-0.15 with a spectrophotometer.
(§5) The bacteria were then diluted 300-fold with 1.1×CAMHB.
(§6) Test compounds of columns A-H: having a highest final test concentration of 64 μg/mL or 32 μg/mL, 2-fold diluted.
(§7) Dilution of test compounds: All test compounds were dissolved and diluted in dimethylsulfoxide (DMSO). 170 μL of 3.2 mg/mL (50*64 μg/mL) compound was transferred to wells (A1-H1) of column 1 of a dilution master plate and then 85 μL of DMSO was transferred to wells of other columns. Each compound was diluted 2-fold in sequence (i.e., 85 μL of compound was pipetted from column 1 into column 2 and mixed uniformly, 85 μL of compound was pipetted from column 2 into column 3 and mixed uniformly, then 85 μL of compound was pipetted from column 3 into column 4 and mixed uniformly, and so on until the dilution was done in column 11).
(§8) Preparation of an additive of ampicillin: Ampicillin was dissolved in ddH2O. 30 μL of 100 μg/mL (12.5×8 μg/mL) ampicillin was transferred to columns 1-11 of an additive plate, followed by the addition of 30 μL of ddH2O to column 12.
(§9) 2 μL of each compound in the dilution master plate of the test compounds was transferred to the corresponding well of the assay plates. In the mean time, 2 μL of 100% DMSO was transferred to the compound-free wells (GC and SC wells). (1) 8 μL of imipenem in the additive plate of imipenem was transferred to the corresponding wells of the assay plates; (2) 8 μL of ceftazidime in the additive plate of ceftazidime was transferred to the corresponding wells of the assay plates; (3) 8 μL of ampicillin in the additive plate of ampicillin was transferred to the corresponding wells of the assay plates.
(§10) 90 μL of corresponding bacterial inocula were added to wells (except for SC wells) of the assay plates.
(§11) After addition, the 6 assay plates were covered by sterile covers. The mixtures in the assay plates were centrifuged by a centrifuge at 1000 rpm for 30 s, and mixed uniformly by oscillating with a microplate oscillator at 800 rpm for 1 min, and then cultured in a common incubator for 16-20 h at 35±2° C.
(§12) The minimum inhibitory concentration of each compound was recorded by reference to guidelines from the Clinical and Laboratory Standards Institute.
(§13) The minimum inhibitory concentrations of the compounds of the present invention and antibiotics (imipenem, ceftazidime, and ampicillin) against 11 strains of bacteria were tested in this study by reference to the medium microdilution method as indicated by the Clinical and Laboratory Standards Institute. The effect of the test compounds in combination with imipenem, ceftazidime, and ampicillin was also tested. Compounds were diluted two-fold in 96-well plates from the highest detection concentration of 64 μg/mL. The test compounds were tested in combination with a fixed concentration of imipenem (4 μg/mL), ceftazidime (8 μg/mL), and ampicillin (8 μg/mL). The bacterial inocula in the assay plates were resuscitated from TSA and diluted in CAMHB, while growth controls (GC wells) and sterile controls (SC wells) were set up in the assay plates. […]

[10] = system: Enterobacter aerogenes XNWB 0011; experiment: as above; conditions: ampicillin 8 μg/mL fixed
Description: as §2, §3, §4, §5, §6, §7, §8, §9, §10, §11, §12, §13

[11] = system: Escherichia coli XNWB 0010; experiment: as above; conditions: ampicillin 8 μg/mL fixed
Description: as §2, §3, §4, §5, §6, §7, §8, §9, §10, §11, §12, §13

[12] = system: Klebsiella pneumoniae XNWB 0001; experiment: MIC assay of test compounds combined with imipenem (4 μg/mL); conditions: imipenem 4 μg/mL fixed
Procedure, shortened: as §1

[13] = system: Klebsiella pneumoniae XNWB 0003; experiment: as above; conditions: imipenem 4 μg/mL fixed
Procedure, shortened: as §1

[14] = system: Pseudomonas aeruginosa XNWB 0008; experiment: as above; conditions: imipenem 4 μg/mL fixed
Procedure, shortened: as §1

[15] = system: Klebsiella pneumoniae XNWB 0004; experiment: as above; conditions: imipenem 4 μg/mL fixed
Procedure, shortened: as §1

[16] = system: Klebsiella pneumoniae XNWB 0005; experiment: as above; conditions: imipenem 4 μg/mL fixed
Procedure, shortened: as §1

[17] = system: Klebsiella pneumoniae XNWB 0002; experiment: as above; conditions: imipenem 4 μg/mL fixed
Procedure, shortened: as §1

[18] = system: Acinetobacter baumannii XNWB 0007; experiment: as above; conditions: imipenem 4 μg/mL fixed
Procedure, shortened: as §1

[19] = system: Klebsiella pneumoniae XNWB 0006; experiment: as above; conditions: imipenem 4 μg/mL fixed
Procedure, shortened: as §1

Row | Compound | The minimum concentration of test compounds combined with ceftazidime (8 μg/mL) for bacteriostasis [1] | The minimum concentration of test compounds combined with ceftazidime (8 μg/mL) for bacteriostasis [2] | The minimum concentration of test compounds combined with ceftazidime (8 μg/mL) for bacteriostasis [3] | The minimum concentration of test compounds combined with ceftazidime (8 μg/mL) for bacteriostasis [4] | The minimum concentration of test compounds combined with ceftazidime (8 μg/mL) for bacteriostasis [5] | The minimum concentration of test compounds combined with ceftazidime (8 μg/mL) for bacteriostasis [6] | The minimum concentration of test compounds combined with ceftazidime (8 μg/mL) for bacteriostasis [7] | The minimum concentration of test compounds combined with ceftazidime (8 μg/mL) for bacteriostasis [8] | The minimum concentration of test compounds combined with ampicillin (8 μg/mL) for bacteriostasis [9] | The minimum concentration of test compounds combined with ampicillin (8 μg/mL) for bacteriostasis [10] | The minimum concentration of test compounds combined with ampicillin (8 μg/mL) for bacteriostasis [11] | The minimum concentration of test compounds combined with imipenem (4 μg/mL) for bacteriostasis [12] | The minimum concentration of test compounds combined with imipenem (4 μg/mL) for bacteriostasis [13] | The minimum concentration of test compounds combined with imipenem (4 μg/mL) for bacteriostasis [14] | The minimum concentration of test compounds combined with imipenem (4 μg/mL) for bacteriostasis [15] | The minimum concentration of test compounds combined with imipenem (4 μg/mL) for bacteriostasis [16] | The minimum concentration of test compounds combined with imipenem (4 μg/mL) for bacteriostasis [17] | The minimum concentration of test compounds combined with imipenem (4 μg/mL) for bacteriostasis [18] | The minimum concentration of test compounds combined with imipenem (4 μg/mL) for bacteriostasis [19]
1 | N=C(N)NCC1(c2nnc([C@@H]3CC4(CC4)[C@@H]4CN3C(=O)N4OS(=O)(=O)O)o2)CC1 [Example 13, (1R,4S)-4-(5-(1-(guanidinomethyl)cyclopropyl)-1,3,4-oxadiazol-2-yl)-6-oxo-5,7-diazaspiro[bicyclo[3.2.1]octane-2,1′-cyclopropan]-7-yl sulfate] | A (A: <8 μg/mL) | A (A: <8 μg/mL) | B (B: 8-16 μg/mL) | B (B: 8-16 μg/mL) | A (A: <8 μg/mL) | A (A: <8 μg/mL) | B (B: 8-16 μg/mL) | A (A: <8 μg/mL) | A (A: <8 μg/mL) | A (A: <8 μg/mL) | A (A: <8 μg/mL) | A (A: <8 μg/mL) | A (A: <8 μg/mL) | A (A: <8 μg/mL) | A (A: <8 μg/mL) | A (A: <8 μg/mL) | A (A: <8 μg/mL) | C (C: 16-128 μg/mL) | A (A: <8 μg/mL)
2 | O=C1N2C[C@H](N1OS(=O)(=O)O)C1(CC1)C[C@H]2c1cc(C2CCNCC2)on1 [Example 43, (1R,4S)-6-oxo-4-(5-(piperidin-4-yl)isoxazol-3-yl)-5,7-diazaspiro[bicyclo[3.2.1]octane-2,1′-cyclopropan]-7-yl sulfate] | A (A: <8 μg/mL) | B (B: 8-16 μg/mL) | B (B: 8-16 μg/mL) | B (B: 8-16 μg/mL) | A (A: <8 μg/mL) | A (A: <8 μg/mL) | C (C: 16-128 μg/mL) | A (A: <8 μg/mL) | A (A: <8 μg/mL) | B (B: 8-16 μg/mL) | A (A: <8 μg/mL) | A (A: <8 μg/mL) | A (A: <8 μg/mL) | A (A: <8 μg/mL) | A (A: <8 μg/mL) | A (A: <8 μg/mL) | A (A: <8 μg/mL) | C (C: 16-128 μg/mL) | A (A: <8 μg/mL)
3 | N=C(N)NCc1nnc([C@@H]2CC3(CC3)[C@@H]3CN2C(=O)N3OS(=O)(=O)O)o1 [Example 3, (1R,4S)-4-(5-(guanidinomethyl)-1,3,4-oxadiazol-2-yl)-6-oxo-5,7-diazaspiro[bicycle [3.2.1]octane-2,1′-cyclopropan]-7-yl sulfate] | B (B: 8-16 μg/mL) | B (B: 8-16 μg/mL) | C (C: 16-128 μg/mL) | B (B: 8-16 μg/mL) | B (B: 8-16 μg/mL) | A (A: <8 μg/mL) | C (C: 16-128 μg/mL) | A (A: <8 μg/mL) | A (A: <8 μg/mL) | C (C: 16-128 μg/mL) | B (B: 8-16 μg/mL) | B (B: 8-16 μg/mL) | A (A: <8 μg/mL) | C (C: 16-128 μg/mL) | A (A: <8 μg/mL) | A (A: <8 μg/mL) | A (A: <8 μg/mL) | C (C: 16-128 μg/mL) | A (A: <8 μg/mL)
